Where a SMILES comes first, the peptide text is derived from it. Bridges are numbered along the chain shown (N, C = ends). [ ]: non-standard residue; d: D form. The star is where a group is joined. C16 diacid = O=C(O)CCCCCCCCCCCCCCC(=O)*; AEEA = NCCOCCOCC(=O)O
Legend:
[1] = Pharmacokinetics after intravenous bolus, mouse; type: in vivo; details: 10 mg/kg bolus IV
Description: (§1) Test agents were formulated in 2% (v/v) propylene glycol in 25 mM HEPES, pH 7.4 and administered with a bolus injection at 10.0 mg/kg via the tail vain to male CD-1 mice (Charles River Laboratories) or male Wistar rats (Charles River Laboratories), or with a 30-min intravenous infusion at 4 mg/kg to male cynomolgus monkeys.
(§2) Blood samples were collected at 2.5, 5, 10, 30, 60, 120, 240 and 480 minutes after administration (mouse and rat), or at 5, 15, 30, 60, 120, 240, 360, 480 and 1440 min (Agent 1) or at 5, 15, 30, 45, 60, 90, 150, 240 and 480 min (Agent 2) after the start of infusion in monkeys. Samples were immediately mixed with a protease inhibitor cocktail (Roche cOmplete™ EDTA-free) before being cooled and centrifuged for plasma separation. Plasma samples were frozen and stored at −20° C. until analysis.
(§3) To rat samples, blank rat plasma was added up to a volume of 100 μl. […]
(§4) Mouse and rat samples: Separation was done with a C18 column (Phenomenex Kinetex XB—C18 (100×2.1 mm, 1.7 μm)), using a gradient between 1% formic acid in water and 2% DMSO in acetonitrile (Agent 1) or acetonitrile (Agent 2). […] The range of quantitation was 4-20,000 ng/mL.
(§5) Non-compartmental PK analysis on plasma concentration versus time data was analyzed by non-compartmental approaches using the WinNonlin software program (version 6.3 or above, Pharsight, Mountain View, CA). […]

[2] = Pharmacokinetics after intravenous bolus, rat; type: in vivo; details: 10 mg/kg bolus IV
Description: as §1, §2, §3, §4, §5

[3] = test system: CD4+ T cells; assay: Dendritic Cell-T cell (DC-T) proliferation assay (ProImmune); details: 22 donors; Percentage Stimulation above Background ≥0.5%, SEM=2; peptides 0.34 μM
Source text: A panel of peripheral blood mononuclear cell (PBMC) samples from healthy human donors was selected from the ProImmune Ltd (UK) cell bank. Each PBMC sample was HLA (Human Leukocyte Antigen)-typed and stored in liquid nitrogen (vapor-phase) prior to use. The panel was selected so that HLA class II alleles known to be highly expressed in the global population were well represented (data not shown). Donors were predominantly selected by DRB1 allele expression.
A Dendritic Cell-T cell (DC-T) proliferation assay (ProImmune Ltd) was used to identify the presence or potential T cell epitopes within the peptides. Adherent donor PBMCs were cultured with appropriate growth factors to generate monocyte-derived DCs. DCs were then loaded with a control (control 1 and control 2), the peptide (Agent 1, Agent 2, and Agent 3, see FIG. 8A) or left untreated. The peptides were loaded at a final concentration of 0.34 μM.
Mature antigen-loaded DCs were then co-cultured at a fixed ratio with autologous CFSE-labelled T cells in multi-well plates. Each test condition was set up in eight replicate wells and cells were incubated for 7 days. At the end of the incubation period, cell samples were stained with anti-CD4 antibody, then washed and fixed for by flow cytometric analysis. Proliferation was determined by measuring a decrease in CFSE intensity.
Data were compiled to determine antigen-induced proliferation per individual donor, calculated as Percentage Stimulation above Background. The frequency of positive donor cell responses (Percentage Antigenicity) was calculated as the proportion of responding donors out of total donors. Values were then standardized against the strength of response (an average of the Percentage Stimulation value obtained across accepted donors for each protein) to give a response index (RI).
Data obtained by flow cytometric evaluation of cell samples was analyzed using FlowJo Software (Tree Star, Inc.). The number of CFSE-dim (i.e., proliferating) cells was determined for each sample in eight replicate wells. Counts for the CD4^+ CFSE dim population in each sample were expressed as a proportion of the total CD4^+ population. The eight replicate values were then used to calculate Percentage Stimulation above Background (proportion of CD4^+ CFSE dim cells with antigen stimulation minus the proportion of CD4^+ CFSE dim cells without antigen stimulation).
Background threshold values are based on data from unstimulated cells for which a maximum acceptable resting proliferation threshold is established.
In evaluating antigenicity, it is also appropriate to take account of the frequency of donor cell responses across the study cohort. A positive response (Percentage Stimulation above Background ≥0.5%) in 2 or more independent donor samples is considered indicative of a potential T cell epitope.
Depending on the size of the study, (20, 40 or 50 donors), two responding donors sets a threshold of 10%, 5% or 4% respectively. Thus, following calculation of Percentage Stimulation above Background, the frequency of positive donor cell responses (Percentage Antigenicity) is expressed as the proportion of responding donors out of total accepted donors screened.
When calculating the antigenicity of a protein it is important to consider the strength of a response as well as the frequency of that response. This is because some binding responses may be pan-allele, but these responses may not be very strong. The strength of positive donor cell responses was determined by taking an average of the percentage stimulation value obtained across accepted donors for each protein. Determining a Response Index (RI) through the multiplication of strength and frequency values is more representative of the level of antigenicity.

In the case of `CC[C@H](C)[C@H](NC(=O)[C@H](CC(N)=O)NC(=O)[C@H](CCCCN)NC(=O)[C@H](C)NC(=O)[C@H](CCCCN)NC(=O)[C@H](CCCCN)NC(=O)COCCOCCNC(=O)COCCOCCNC(=O)CCCCCCCCCCCCCCC(=O)O)C(=O)N[C@H](C(=O)N[C@@H](CC(C)C)C(=O)N[C@@H](CC(C)C)C(=O)N[C@@H](CCCCN)C(=O)NCC(=O)N[C@@H](CC(C)C)C(=O)N[C@@H](CCC(=O)O)C(=O)N[C@H](C(=O)N[C@H](C(=O)N[C@@H](CC(N)=O)C(=O)N[C@@H](CC(=O)O)C(=O)N[C@@H](Cc1c[nH]c2ccccc12)C(=O)N[C@@H](Cc1c[nH]cn1)C(=O)N[C@@H](Cc1ccccc1)C(=O)N[C@H]1CSSC[C@@H](C(N)=O)NC(=O)[C@@H](CCCNC(=N)N)NC(=O)[C@H](CCCNC(=N)N)NC(=O)[C@@H](CCCCN)NC(=O)[C@H](CCCCN)NC(=O)[C@@H](CCCNC(=N)N)NC(=O)CNC(=O)[C@@H](CCCNC(=N)N)NC(=O)[C@H](CCCNC(=N)N)NC(=O)[C@@H](CCCNC(=N)N)NC1=O)[C@@H](C)CC)C(C)C)C(C)C` [Agent 1] ({C16 diacid-AEEA-AEEA}-KKAKNIVLLKGLEVINDWHFC[dR]R[dR]G[dR]K[dK]R[dR]C-NH2; disulfide 21-31), the “increase in exposure (AUC0-inf) compared to Agent 2, at equal dose” value [1] is reported as “approximately 32 fold”, the “increase in exposure (AUC0-inf) compared to Agent 2, at equal dose” value [2] is reported as about 27 fold and the “Response Index (RI)” value [3] is reported as 0.294. It also gave a percentage antigenicity [3] of 22.73%.

From patent publication US20240350647A1, “STING SENSITIZING AGENTS” (STipe Therapeutics ApS, priority 2023, published 2024)
